# Measured values taken from publication PMC5095700 (Biochemistry, 2016).
# Target: T1, Glucosamine/glucosaminide N-acetyltransferase (GlmA) (Clostridium acetobutylicum, UniProt Q97ML2, Y297F)
# T1 sequence (Q97ML2 1-320 Y297F): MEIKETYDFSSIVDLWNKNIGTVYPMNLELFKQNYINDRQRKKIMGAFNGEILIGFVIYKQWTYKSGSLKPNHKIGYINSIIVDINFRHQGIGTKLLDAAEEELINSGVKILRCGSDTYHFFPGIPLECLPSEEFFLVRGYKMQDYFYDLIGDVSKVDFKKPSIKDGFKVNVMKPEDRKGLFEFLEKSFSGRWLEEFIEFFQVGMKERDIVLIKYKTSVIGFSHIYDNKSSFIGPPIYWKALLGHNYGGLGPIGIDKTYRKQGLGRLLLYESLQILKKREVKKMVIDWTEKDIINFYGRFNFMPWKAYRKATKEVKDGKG
# Experiment: X-ray crystal structure of Y297F variant
# Format: binding
compound,measurement,value
"CC(=O)SCCNC(=O)CCNC(=O)[C@H](O)C(C)(C)COP(=O)(O)OP(=O)(O)OC[C@H]1O[C@@H](n2cnc3c(N)ncnc32)[C@H](O)[C@@H]1OP(=O)(O)O [AcCoA, acetyl CoA]",X-ray crystal structure of Y297F variant (1.8 Å),electron density was clearly visible for the acetyl group of the cofactor bound in the C-terminal domain
